Source: BigSolDB 2.1

Cc1c(N)c(=O)n(-c2ccccc2)n1C
solubility (mole fraction)
Details | in acetone | in ethanol | in ethyl acetate | in isopropanol | in methanol | in n-butanol | in n-propanol | in sec-butanol | in water
299.05 K | 0.37 | 0.22 | 0.08 | 0.19 | 0.23 | 0.15 | 0.21 | 0.14 | 0.13
303.15 K | 0.4 | 0.25 | 0.09 | 0.22 | 0.25 | 0.17 | 0.24 | 0.16 | 0.15
307.25 K | 0.43 | 0.28 | 0.11 | 0.25 | 0.28 | 0.19 | 0.28 | 0.18 | 0.17
311.05 K | 0.44 | 0.31 | 0.13 | 0.29 | 0.31 | 0.21 | 0.31 | 0.2 | 0.19
315.15 K | 0.47 | 0.35 | 0.15 | 0.32 | 0.34 | 0.24 | 0.35 | 0.23 | 0.22
321.05 K | 0.52 | 0.41 | 0.2 | 0.38 | 0.39 | 0.29 | 0.41 | 0.27 | 0.27
327.15 K | 0.55 | 0.48 | 0.25 | 0.45 | 0.44 | 0.34 | 0.46 | 0.31 | 0.33
338.35 K | 0.62 | 0.6 | 0.36 | 0.57 | 0.57 | 0.46 | 0.59 | 0.41 | 0.44
